Test results taken from patent US7138361B2, “Herbicidal heterocycles” (E. I. du Pont de Nemours and Company, priority 2000, dated 2006).

Key:
Type in all cases: in vivo
[1] = test system: morning glory (Ipomoea spp.); assay: Test A postemergence, sprayed to runoff; design: scale not given here; details: Morningglory, approx. eleven days
Description: (§1) Seeds of barnyardgrass (Echinochloa crus-galli), crabgrass (Digitaria spp.), giant foxtail (Setaria viridis), morning glory (Ipomoea spp.), redroot pigweed (Amaranthus retroflexus) and velvetleaf (Abutilon theophrasti) were planted into a sandy loam soil and treated preemergence by soil drench with test chemicals formulated in a non-phytotoxic solvent mixture which included a surfactant. At the same time, these crop and weed species were also treated postemergence sprayed to runoff with test chemicals formulated in the same manner. Plants ranged in height from two to eighteen cm and were in the one- to two-leaf stage for the postemergence treatment. Treated plants and untreated controls were maintained in a greenhouse for approximately eleven days, after which time all treated plants were compared to untreated controls and visually evaluated for injury. Plant response ratings, summarized in Table A, are based on a 0 to 10 scale where 0 is no effect and 10 is complete control. A dash (-) response means no test results.

[2] = test system: velvetleaf (Abutilon theophrasti); assay: Test A postemergence, sprayed to runoff; design: scale not given here; details: approx. eleven days
Description: as §1

[3] = test system: crabgrass (Digitaria spp.); assay: Test A postemergence, sprayed to runoff; details: approx. eleven days
Description: as §1

[4] = test system: giant foxtail (Setaria viridis); assay: Test A postemergence, sprayed to runoff; details: approx. eleven days
Description: as §1

[5] = test system: redroot pigweed (Amaranthus retroflexus); assay: Test A postemergence, sprayed to runoff; details: approx. eleven days
Description: as §1

[6] = test system: Surinam grass (Brachiaria decumbens); assay: Test C postemergence
How it was run: (§2)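 Formulation: non-phytotoxic solvent mix incl. surfactant. Pre: applied right after planting. Post: 1–4-leaf seedlings. Read: visual 0–100, day 12–14, greenhouse.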

[7] = test system: bermudagrass (Cynodon dactylon); assay: Test C postemergence
How it was run: as §2

[8] = test system: chickweed (Stellaria media); assay: Test C postemergence
How it was run: as §2

[9] = test system: cocklebur (Xanthium strumarium); assay: Test C postemergence
How it was run: as §2

[10] = test system: common ragweed (Ambrosia elatior); assay: Test C postemergence
How it was run: as §2

corn (Zea mays) = assay: Test C postemergence
How it was run: as §2

[11] = test system: crabgrass (Digitaria sanguinalis); assay: Test C postemergence
How it was run: as §2

[12] = test system: giant foxtail (Setaria faberii); assay: Test C postemergence
How it was run: as §2

[13] = test system: goosegrass (Eleusine indica); assay: Test C postemergence
How it was run: as §2

[14] = test system: johnsongrass (Sorghum halepense); assay: Test C postemergence
How it was run: as §2

kochia (Kochia scoparia) = assay: Test C postemergence
How it was run: as §2

[15] = test system: lambsquarters (Chenopodium album); assay: Test C postemergence
How it was run: as §2

[16] = test system: pigweed (Amaranthus retroflexus); assay: Test C postemergence
How it was run: as §2

soybean (Glycine max) = assay: Test C postemergence
How it was run: as §2

[17] = test system: velvetleaf (Abutilon theophrasti); assay: Test C postemergence
How it was run: as §2

[18] = test system: woolly cupgrass (Eriochloa villosa); assay: Test C postemergence
How it was run: as §2

[19] = test system: yellow nutsedge (Cyperus esculentus); assay: Test C postemergence
How it was run: as §2

[20] = Rate 125 g/ha, scale 0 to 100, 0 no effect, 100 complete control
[21] = Rate 250 g/ha, scale 0 to 100 (0 no effect, 100 complete control)
[22] = Rate 500 g/ha, scale 0 to 100 (0 no effect, 100 complete control)

Structure (SMILES): CC(C)(C)c1ccn(C2SCN(c3cccc(C(F)(F)F)c3)C2=O)n1 (stereo not shown) [Compound 1]
- Plant response rating (visual injury vs untreated controls) ([1]; Rate 500 g/ha): 90
- Plant response rating (visual injury vs untreated controls) ([1]; Rate 2000 g/ha): 90
- Plant response rating (visual injury vs untreated controls) ([2]; Rate 500 g/ha): 10
- Plant response rating (visual injury vs untreated controls) ([2]; Rate 2000 g/ha): 30
- Plant response rating (visual injury vs untreated controls) ([3]; Rate 500 g/ha): 10
- Plant response rating (visual injury vs untreated controls) ([3]; Rate 2000 g/ha): 10
- Plant response rating (visual injury vs untreated controls) ([4]; Rate 500 g/ha): 30
- Plant response rating (visual injury vs untreated controls) ([4]; Rate 2000 g/ha): 30
- Plant response rating (visual injury vs untreated controls) ([5]; Rate 500 g/ha): 20
- Plant response rating (visual injury vs untreated controls) ([5]; Rate 2000 g/ha): 90

Structure (SMILES): CCCC(C)c1ccn(C2OCN(c3cccc(OC(F)(F)F)c3)C2=O)n1 (stereo not shown) [Compound 91]
- Plant response rating, Surinam grass ([6]; Rate 62 g/ha, scale 0 to 100): 20
- Plant response rating, Surinam grass [6, 20]: 20
- Plant response rating, Surinam grass [6, 21]: 30
- Plant response rating, Surinam grass [6, 22]: 30
- Plant response rating, Bermudagrass ([7]; Rate 62 g/ha, scale 0 to 100): 20
- Plant response rating, Bermudagrass [7, 20]: 20
- Plant response rating, Bermudagrass [7, 21]: 40
- Plant response rating, Bermudagrass [7, 22]: 60
- Plant response rating, Chickweed ([8]; Rate 62 g/ha, scale 0 to 100): 70
- Plant response rating, Chickweed [8, 20]: 80
- Plant response rating, Chickweed [8, 21]: 80
- Plant response rating, Chickweed [8, 22]: 90
- Plant response rating, Cocklebur ([9]; Rate 62 g/ha, scale 0 to 100): 0
- Plant response rating, Cocklebur [9, 20]: 0
- Plant response rating, Cocklebur [9, 21]: 0
- Plant response rating, Cocklebur [9, 22]: 20
- Plant response rating, Ragweed, Common ([10]; Rate 62 g/ha, scale 0 to 100): 0
- Plant response rating, Ragweed, Common [10, 20]: 0
- Plant response rating, Ragweed, Common [10, 21]: 0
- Plant response rating, Ragweed, Common [10, 22]: 40
- Plant response rating, Corn (corn (Zea mays); Rate 62 g/ha, scale 0 to 100): 0
- Plant response rating, Corn (corn (Zea mays); [20]): 0
- Plant response rating, Corn (corn (Zea mays); [21]): 0
- Plant response rating, Corn (corn (Zea mays); [22]): 0
- Plant response rating, Crabgrass ([11]; Rate 62 g/ha, scale 0 to 100): 20
- Plant response rating, Crabgrass [11, 20]: 20
- Plant response rating, Crabgrass [11, 21]: 30
- Plant response rating, Crabgrass [11, 22]: 60
- Plant response rating, Foxtail, Giant ([12]; Rate 62 g/ha, scale 0 to 100): 20
- Plant response rating, Foxtail, Giant [12, 20]: 20
- Plant response rating, Foxtail, Giant [12, 21]: 40
- Plant response rating, Foxtail, Giant [12, 22]: 40
- Plant response rating, Goosegrass ([13]; Rate 62 g/ha, scale 0 to 100): 20
- Plant response rating, Goosegrass [13, 20]: 20
- Plant response rating, Goosegrass [13, 21]: 30
- Plant response rating, Goosegrass [13, 22]: 40
- Plant response rating, Johnsongrass ([14]; Rate 62 g/ha, scale 0 to 100): 20
- Plant response rating, Johnsongrass [14, 20]: 20
- Plant response rating, Johnsongrass [14, 21]: 30
- Plant response rating, Johnsongrass [14, 22]: 70
- Plant response rating, Kochia (kochia (Kochia scoparia); Rate 62 g/ha, scale 0 to 100): 70
- Plant response rating, Kochia (kochia (Kochia scoparia); [20]): 70
- Plant response rating, Kochia (kochia (Kochia scoparia); [21]): 90
- Plant response rating, Kochia (kochia (Kochia scoparia); [22]): 90
- Plant response rating, Lambsquarters ([15]; Rate 62 g/ha, scale 0 to 100): 100
- Plant response rating, Lambsquarters [15, 20]: 100
- Plant response rating, Lambsquarters [15, 21]: 100
- Plant response rating, Lambsquarters [15, 22]: 100
- Plant response rating, Pigweed ([16]; Rate 62 g/ha, scale 0 to 100): 70
- Plant response rating, Pigweed [16, 20]: 70
- Plant response rating, Pigweed [16, 21]: 90
- Plant response rating, Pigweed [16, 22]: 100
- Plant response rating, Soybean (soybean (Glycine max); Rate 62 g/ha, scale 0 to 100): 0
- Plant response rating, Soybean (soybean (Glycine max); [20]): 0
- Plant response rating, Soybean (soybean (Glycine max); [21]): 0
- Plant response rating, Soybean (soybean (Glycine max); [22]): 0
- Plant response rating, Velvetleaf ([17]; Rate 62 g/ha, scale 0 to 100): 0
- Plant response rating, Velvetleaf [17, 20]: 0
- Plant response rating, Velvetleaf [17, 21]: 0
- Plant response rating, Velvetleaf [17, 22]: 0
- Plant response rating, Cupgrass, Woolly ([18]; Rate 62 g/ha, scale 0 to 100): 20
- Plant response rating, Cupgrass, Woolly [18, 20]: 20
- Plant response rating, Cupgrass, Woolly [18, 21]: 40
- Plant response rating, Cupgrass, Woolly [18, 22]: 40
- Plant response rating, Nutsedge ([19]; Rate 62 g/ha, scale 0 to 100): 0
- Plant response rating, Nutsedge [19, 20]: 0
- Plant response rating, Nutsedge [19, 21]: 0
- Plant response rating, Nutsedge [19, 22]: 20

Structure (SMILES): CCCOc1cc(N2CCC(n3ccc(C(C)(C)C)n3)C2=O)ccc1C (stereo not shown) [Compound 107]
- Plant response rating, Surinam grass ([6]; Rate 62 g/ha, scale 0 to 100): 0
- Plant response rating, Surinam grass [6, 20]: 0
- Plant response rating, Surinam grass [6, 21]: 0
- Plant response rating, Surinam grass [6, 22]: 0
- Plant response rating, Bermudagrass ([7]; Rate 62 g/ha, scale 0 to 100): 0
- Plant response rating, Bermudagrass [7, 20]: 0
- Plant response rating, Bermudagrass [7, 21]: 0
- Plant response rating, Bermudagrass [7, 22]: 0
- Plant response rating, Chickweed ([8]; Rate 62 g/ha, scale 0 to 100): 50
- Plant response rating, Chickweed [8, 20]: 100
- Plant response rating, Chickweed [8, 21]: 100
- Plant response rating, Chickweed [8, 22]: 100
- Plant response rating, Cocklebur ([9]; Rate 62 g/ha, scale 0 to 100): 0
- Plant response rating, Cocklebur [9, 21]: 30
- Plant response rating, Cocklebur [9, 22]: 80
- Plant response rating, Ragweed, Common [10, 22]: 50
- Plant response rating, Corn (corn (Zea mays); Rate 62 g/ha, scale 0 to 100): 0
- Plant response rating, Corn (corn (Zea mays); [21]): 0
- Plant response rating, Corn (corn (Zea mays); [22]): 0
- Plant response rating, Corn (corn (Zea mays); scale 0 to 100): 0
- Plant response rating, Crabgrass ([11]; Rate 62 g/ha, scale 0 to 100): 0
- Plant response rating, Crabgrass [11, 21]: 0
- Plant response rating, Crabgrass [11, 22]: 20
- Plant response rating, Foxtail, Giant ([12]; Rate 62 g/ha, scale 0 to 100): 0
- Plant response rating, Foxtail, Giant [12, 21]: 0
- Plant response rating, Foxtail, Giant [12, 22]: 0
- Plant response rating, Goosegrass ([13]; Rate 62 g/ha, scale 0 to 100): 0
- Plant response rating, Goosegrass [13, 21]: 0
- Plant response rating, Goosegrass [13, 22]: 0
- Plant response rating, Johnsongrass ([14]; Rate 62 g/ha, scale 0 to 100): 0
- Plant response rating, Johnsongrass [14, 21]: 0
- Plant response rating, Johnsongrass [14, 22]: 0
- Plant response rating, Johnsongrass ([14]; rate not given, scale 0 to 100): 0
- Plant response rating, Kochia (kochia (Kochia scoparia); Rate 62 g/ha, scale 0 to 100): 70
- Plant response rating, Kochia (kochia (Kochia scoparia); [21]): 80
- Plant response rating, Kochia (kochia (Kochia scoparia); [22]): 85
- Plant response rating, Lambsquarters ([15]; Rate 62 g/ha, scale 0 to 100): 50
- Plant response rating, Lambsquarters [15, 21]: 100
- Plant response rating, Lambsquarters [15, 22]: 100
- Plant response rating, Pigweed ([16]; Rate 62 g/ha, scale 0 to 100): 50
- Plant response rating, Pigweed [16, 21]: 55
- Plant response rating, Pigweed [16, 22]: 90
- Plant response rating, Soybean (soybean (Glycine max); Rate 62 g/ha, scale 0 to 100): 0
- Plant response rating, Soybean (soybean (Glycine max); [21]): 20
- Plant response rating, Soybean (soybean (Glycine max); [22]): 25
- Plant response rating, Velvetleaf ([17]; Rate 62 g/ha, scale 0 to 100): 30
- Plant response rating, Velvetleaf [17, 21]: 50
- Plant response rating, Velvetleaf [17, 22]: 80
- Plant response rating, Velvetleaf ([17]; scale 0 to 100): 40
- Plant response rating, Cupgrass, Woolly ([18]; Rate 62 g/ha, scale 0 to 100): 0
- Plant response rating, Cupgrass, Woolly [18, 21]: 0
- Plant response rating, Cupgrass, Woolly [18, 22]: 0
- Plant response rating, Nutsedge ([19]; Rate 62 g/ha, scale 0 to 100): 0
- Plant response rating, Nutsedge [19, 21]: 0
- Plant response rating, Nutsedge [19, 22]: 0
